tested on: beta-TC6 cells; experiment: Insulin HTRF assay (relative activity Ar) in beta-TC6 cells; type: cell-based, mouse; settings: Mus musculus, Beta-TC6, 4 h, insulin HTRF, supernatant of beta-TC6 cells, incubation with test compound at 37°C for 2, 3, 4h; read-out: Ar (relative activity)
How it was run: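 beta-TC6 cells (15k/well, seeded 24 or 48 h) washed, then exposed to compound in induction buffer (0.5% DMSO final) for 2, 3 or 4 h at 37°C.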

**Q.** For `COCCNC(=O)c1cccc(-c2nc3c(Nc4cc(OC)c(OC)c(OC)c4)nccc3[nH]2)c1` [Compound 385, N-(2-methoxyethyl)-3-[4-(3,4,5-trimethoxyanilino)-1H-imidazo[4,5-c]pyridin-2-yl]benzamide], which Emax is on record?
**A.** > 100%

**Q.** For `COCCNC(=O)c1cccc(-c2nc3c(Nc4cccc(OC)c4)nccc3[nH]2)c1` [Compound 386, 3-[4-(3-methoxyanilino)-1H-imidazo[4,5-c]pyridin-2-yl]-N-(2-methoxyethyl)benzamide], which Emax is on record?
**A.** 50 to 100%

**Q.** For `COCCNC(=O)c1cccc(-c2nc3c(Nc4ccccc4)nccc3[nH]2)c1` [Compound 387, 3-(4-anilino-1H-imidazo[4,5-c]pyridin-2-yl)-N-(2-methoxyethyl)benzamide], which Emax is on record?
**A.** 30 to 50%

**Q.** How did the Emax turn out when `COc1ccc(-c2nc3c(Nc4cc(OC)c(OC)c(OC)c4)nccc3[nH]2)cc1` [Compound 389, 2-(4-methoxyphenyl)-N-(3,4,5-trimethoxyphenyl)-1H-imidazo[4,5-c]pyridin-4-amine] was run?
**A.** 50 to 100%

**Q.** `COc1ccc(-c2nc3c(Nc4cccc(OC)c4)nccc3[nH]2)cc1` [Compound 390, N-(3-methoxyphenyl)-2-(4-methoxyphenyl)-1H-imidazo[4,5-c]pyridin-4-amine] was tested. Which Emax did it give?
**A.** 30 to 50%

**Q.** How did the Emax turn out when `COc1ccc(-c2nc3c(Nc4ccccc4)nccc3[nH]2)cc1` [Compound 393, 2-(4-methoxyphenyl)-N-phenyl-1H-imidazo[4,5-c]pyridin-4-amine] was run?
**A.** 30 to 50%

**Q.** For `COc1ccc(-c2nc3c(NCCc4ccccn4)nccc3[nH]2)cc1` [Compound 394, 2-(4-methoxyphenyl)-N-[2-(2-pyridyl)ethyl]-1H-imidazo[4,5-c]pyridin-4-amine], which Emax is on record?
**A.** 30 to 50%

**Q.** With `COc1ccc(Nc2nccc3[nH]c(-c4ccc(OC)cc4)nc23)cc1` [Compound 395, N,2-bis(4-methoxyphenyl)-1H-imidazo[4,5-c]pyridin-4-amine] as the compound, how does the Emax read?
**A.** 50 to 100%

**Q.** `COc1ccc(-c2nc3c(N4CCN(C)CC4)nccc3[nH]2)cc1` [Compound 396, 2-(4-methoxyphenyl)-4-(4-methylpiperazin-1-yl)-1H-imidazo[4,5-c]pyridine] was tested. Which Emax did it give?
**A.** 30 to 50%

**Q.** `COc1ccc(-c2nc3c(Nc4cccc(O)c4)nccc3[nH]2)cc1` [Compound 397, 3-[[2-(4-methoxyphenyl)-1H-imidazo[4,5-c]pyridin-4-yl]amino]phenol] was tested. Which Emax did it give?
**A.** 50 to 100%

**Q.** For `COc1ccc(-c2nc3c(Nc4ccc(OC)c(O)c4)nccc3[nH]2)cc1` [Compound 398, 2-methoxy-5-[[2-(4-methoxyphenyl)-1H-imidazo[4,5-c]pyridin-4-yl]amino]phenol], which Emax is on record?
**A.** > 100%

**Q.** Which Emax does the source give for `COc1ccc(-c2nc3c(N4CCOCC4)nccc3[nH]2)cc1` [Compound 399, 4-[2-(4-methoxyphenyl)-1H-imidazo[4,5-c]pyridin-4-yl]morpholine] here?
**A.** 30 to 50%

**Q.** How did the Emax turn out when `COc1ccc(-c2nc3c(NCC4CC4)nccc3[nH]2)cc1` [Compound 400, N-(cyclopropylmethyl)-2-(4-methoxyphenyl)-1H-imidazo[4,5-c]pyridin-4-amine] was run?
**A.** 30 to 50%

**Q.** For `COCCCNc1nccc2[nH]c(-c3ccc(OC)cc3)nc12` [Compound 401, 2-(4-methoxyphenyl)-N-(3-methoxypropyl)-1H-imidazo[4,5-c]pyridin-4-amine], which Emax is on record?
**A.** 30 to 50%

**Q.** How did the Emax turn out when `COc1cc(Nc2nccc3[nH]c(-c4cccc(F)c4)nc23)cc(OC)c1OC` [Compound 402, 2-(3-fluorophenyl)-N-(3,4,5-trimethoxyphenyl)-1H-imidazo[4,5-c]pyridin-4-amine] was run?
**A.** 30 to 50%

**Q.** With `NC(=O)c1ccc(Nc2nccc3[nH]c(-c4cccc(F)c4)nc23)cc1` [Compound 403, 4-[[2-(3-fluorophenyl)-1H-imidazo[4,5-c]pyridin-4-yl]amino]benzamide] as the compound, how does the Emax read?
**A.** 30 to 50%

**Q.** For `COc1ccc(Nc2nccc3[nH]c(-c4cccc(F)c4)nc23)cc1OC` [Compound 404, N-(3,4-dimethoxyphenyl)-2-(3-fluorophenyl)-1H-imidazo[4,5-c]pyridin-4-amine], which Emax is on record?
**A.** > 100%

**Q.** With `COc1ccc(Nc2nccc3[nH]c(-c4cccc(F)c4)nc23)cn1` [Compound 405, 2-(3-fluorophenyl)-N-(6-methoxy-3-pyridyl)-1H-imidazo[4,5-c]pyridin-4-amine] as the compound, how does the Emax read?
**A.** 30 to 50%

**Q.** Which Emax does the source give for `Fc1cccc(-c2nc3c(NCCc4ccccn4)nccc3[nH]2)c1` [Compound 406, 2-(3-fluorophenyl)-N-[2-(2-pyridyl)ethyl]-1H-imidazo[4,5-c]pyridin-4-amine] here?
**A.** 50 to 100%

**Q.** Which Emax does the source give for `COc1ccc(Nc2nccc3[nH]c(-c4cccc(F)c4)nc23)cc1` [Compound 407, 2-(3-fluorophenyl)-N-(4-methoxyphenyl)-1H-imidazo[4,5-c]pyridin-4-amine] here?
**A.** 50 to 100%

**Q.** For `Fc1cccc(-c2nc3c(Nc4cccc(Oc5ccccc5)c4)nccc3[nH]2)c1` [Compound 408, 2-(3-fluorophenyl)-N-(3-phenoxyphenyl)-1H-imidazo[4,5-c]pyridin-4-amine], which Emax is on record?
**A.** 0 to 30%

**Q.** For `COc1cc(Nc2nccc3[nH]c(-c4ccc5c(c4)OCCO5)nc23)cc(OC)c1OC` [Compound 409, 2-(2,3-dihydro-1,4-benzodioxin-6-yl)-N-(3,4,5-trimethoxyphenyl)-1H-imidazo[4,5-c]pyridin-4-amine], which Emax is on record?
**A.** 50 to 100%

**Q.** With `COc1cccc(Nc2nccc3[nH]c(-c4ccc5c(c4)OCCO5)nc23)c1` [Compound 410, 2-(2,3-dihydro-1,4-benzodioxin-6-yl)-N-(3-methoxyphenyl)-1H-imidazo[4,5-c]pyridin-4-amine] as the compound, how does the Emax read?
**A.** 30 to 50%

**Q.** How did the Emax turn out when `COc1ccc(Nc2nccc3[nH]c(-c4ccc5c(c4)OCCO5)nc23)cc1OC` [Compound 411, 2-(2,3-dihydro-1,4-benzodioxin-6-yl)-N-(3,4-dimethoxyphenyl)-1H-imidazo[4,5-c]pyridin-4-amine] was run?
**A.** 50 to 100%

**Q.** How did the Emax turn out when `c1ccc(Nc2nccc3[nH]c(-c4ccc5c(c4)OCCO5)nc23)cc1` [Compound 412, 2-(2,3-dihydro-1,4-benzodioxin-6-yl)-N-phenyl-1H-imidazo[4,5-c]pyridin-4-amine] was run?
**A.** 30 to 50%

**Q.** Which Emax does the source give for `CC(C)CNc1nccc2[nH]c(-c3ccc4c(c3)OCCO4)nc12` [Compound 413, 2-(2,3-dihydro-1,4-benzodioxin-6-yl)-N-isobutyl-1H-imidazo[4,5-c]pyridin-4-amine] here?
**A.** 30 to 50%

**Q.** Which Emax does the source give for `COc1ccc(Nc2nccc3[nH]c(-c4ccc5c(c4)OCCO5)nc23)cc1` [Compound 414, 2-(2,3-dihydro-1,4-benzodioxin-6-yl)-N-(4-methoxyphenyl)-1H-imidazo[4,5-c]pyridin-4-amine] here?
**A.** 50 to 100%

**Q.** `OCCNc1nccc2[nH]c(-c3ccc4c(c3)OCCO4)nc12` [Compound 416, 2-[[2-(2,3-dihydro-1,4-benzodioxin-6-yl)-1H-imidazo[4,5-c]pyridin-4-yl]amino]ethanol] was tested. Which Emax did it give?
**A.** 30 to 50%

**Q.** How did the Emax turn out when `CS(=O)(=O)c1cccc(Nc2nccc3[nH]c(-c4ccc5c(c4)OCCO5)nc23)c1` [Compound 417, 2-(2,3-dihydro-1,4-benzodioxin-6-yl)-N-(3-methylsulfonylphenyl)-1H-imidazo[4,5-c]pyridin-4-amine] was run?
**A.** 30 to 50%

**Q.** For `Oc1cccc(Nc2nccc3[nH]c(-c4ccc5c(c4)OCCO5)nc23)c1` [Compound 418, 3-[[2-(2,3-dihydro-1,4-benzodioxin-6-yl)-1H-imidazo[4,5-c]pyridin-4-yl]amino]phenol], which Emax is on record?
**A.** 50 to 100%

**Q.** `c1cc2[nH]c(-c3ccc4c(c3)OCCO4)nc2c(NCC2CC2)n1` [Compound 419, N-(cyclopropylmethyl)-2-(2,3-dihydro-1,4-benzodioxin-6-yl)-1H-imidazo[4,5-c]pyridin-4-amine] was tested. Which Emax did it give?
**A.** 50 to 100%
